According to ChEMBL document CHEMBL2203047, “Discovery and SAR of a novel series of non-MPEP site mGlu₅ PAMs based on an aryl glycine sulfonamide scaffold” (Bioorg Med Chem Lett, 2012):
Calls of active or inactive are those of the source. The rule behind the calls is not given here.

Key:
[1] = system: HEK293; test: Selectivity ratio of EC50 for human mGlu5 receptor expressed in HEK293 cells to EC50 for rat mGlu5 receptor expressed in HEK293 cells; format: cell-based
[2] = target: Metabotropic glutamate receptor 7 (Homo sapiens) (UniProt Q14831); test: Positive allosteric modulation of mGluR7
[3] = target: T1, Metabotropic glutamate receptor 5 (Rattus norvegicus, UniProt P31424); test: Ago-positive allosteric modulation of rat mGlu5 receptor expressed in HEK293 cells by fluorescence-based calcium flux assay; format: functional, cell-based
[4] = target: Metabotropic glutamate receptor 3 (Homo sapiens) (UniProt Q14832); test: Positive allosteric modulation of mGluR3
[5] = target: T1, Metabotropic glutamate receptor 5; test: Displacement of [3H]-methoxyPEPy from rat mGlu5 receptor expressed in HEK293 cells after 1 hr by scintillation counting analysis; format: cell-based
[6] = target: Metabotropic glutamate receptor 5 (Rattus norvegicus) (UniProt P31424); test: Ago-positive allosteric modulation of rat mGlu5 receptor expressed in HEK293 cells by fluorescence-based calcium flux assay relative to glutamate; format: functional, cell-based
[7] = target: T2, Metabotropic glutamate receptor 5 (Homo sapiens, UniProt P41594); test: Positive allosteric modulation of human mGlu5 receptor expressed in HEK293 cells by fluorescence-based calcium flux assay; format: functional, cell-based
Target sequence in this assay (P41594 whole entry): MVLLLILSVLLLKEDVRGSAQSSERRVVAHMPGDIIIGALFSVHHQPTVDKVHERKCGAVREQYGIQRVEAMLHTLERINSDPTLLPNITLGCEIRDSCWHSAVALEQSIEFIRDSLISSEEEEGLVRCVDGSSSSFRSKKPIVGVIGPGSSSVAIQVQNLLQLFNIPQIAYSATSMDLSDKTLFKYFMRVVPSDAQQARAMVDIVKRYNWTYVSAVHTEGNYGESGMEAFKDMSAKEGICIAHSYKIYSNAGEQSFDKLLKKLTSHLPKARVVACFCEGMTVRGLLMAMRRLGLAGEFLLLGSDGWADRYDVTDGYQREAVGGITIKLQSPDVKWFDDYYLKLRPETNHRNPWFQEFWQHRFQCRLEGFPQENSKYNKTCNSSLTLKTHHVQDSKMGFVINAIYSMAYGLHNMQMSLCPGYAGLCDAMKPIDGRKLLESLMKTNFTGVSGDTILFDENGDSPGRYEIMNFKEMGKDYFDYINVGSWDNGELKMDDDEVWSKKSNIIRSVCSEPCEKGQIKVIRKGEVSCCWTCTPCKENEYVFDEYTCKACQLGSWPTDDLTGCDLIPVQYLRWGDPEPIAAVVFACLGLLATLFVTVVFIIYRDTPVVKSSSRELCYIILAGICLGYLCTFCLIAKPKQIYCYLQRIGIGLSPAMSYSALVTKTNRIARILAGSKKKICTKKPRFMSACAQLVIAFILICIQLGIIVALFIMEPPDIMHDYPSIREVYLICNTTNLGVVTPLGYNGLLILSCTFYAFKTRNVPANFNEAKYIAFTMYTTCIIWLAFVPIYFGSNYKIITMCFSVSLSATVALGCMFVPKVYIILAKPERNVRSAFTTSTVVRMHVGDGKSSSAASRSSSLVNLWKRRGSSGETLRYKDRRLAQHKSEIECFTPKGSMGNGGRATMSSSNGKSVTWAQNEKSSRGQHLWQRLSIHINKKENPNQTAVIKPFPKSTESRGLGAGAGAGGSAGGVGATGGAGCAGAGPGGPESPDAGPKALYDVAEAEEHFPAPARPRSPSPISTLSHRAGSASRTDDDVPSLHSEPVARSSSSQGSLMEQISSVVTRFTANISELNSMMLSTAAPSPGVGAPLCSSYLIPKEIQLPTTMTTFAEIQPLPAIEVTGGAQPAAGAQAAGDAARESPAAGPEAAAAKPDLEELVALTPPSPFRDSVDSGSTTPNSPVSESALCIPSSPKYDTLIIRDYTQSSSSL

[8] = target: Metabotropic glutamate receptor 1 (Homo sapiens) (UniProt Q13255); test: Positive allosteric modulation of mGluR1
[9] = target: T2, Metabotropic glutamate receptor 5; test: Positive allosteric modulation of human mGlu5 receptor expressed in HEK293 cells by fluorescence-based calcium flux assay relative to glutamate; format: functional, cell-based
[10] = target: Metabotropic glutamate receptor 2 (Homo sapiens) (UniProt Q14416); test: Positive allosteric modulation of mGluR2
[11] = target: Metabotropic glutamate receptor 8 (Homo sapiens) (UniProt O00222); test: Positive allosteric modulation of mGluR8
[12] = target: Metabotropic glutamate receptor 6 (Homo sapiens) (UniProt O15303); test: Positive allosteric modulation of mGluR6
[13] = target: Metabotropic glutamate receptor 4 (Homo sapiens) (UniProt Q14833); test: Positive allosteric modulation of mGluR4
[14] = system: Liver microsomes; test: Metabolic stability in rat liver microsomes assessed as compound remaining at 1 uM after 15 mins in presence of NADPH; format: ADME, Microsome; details: 0.25 h
[15] = system: Plasma; test: (§1) Fraction unbound in rat plasma at 5 uM after 4 hrs by equilibrium dialysis method; format: ADME, cell-free; details: 4 h, 5 µM
[16] = system: Plasma; test: (§2) Fraction unbound in human plasma at 5 uM after 4 hrs by equilibrium dialysis method; format: ADME, cell-free; details: 4 h, 5 µM
[17] = as §2; format: ADME, cell-free
[18] = Inhibition of sodium channel
[19] = target: Voltage-gated inwardly rectifying potassium channel KCNH2 (Homo sapiens, UniProt Q12809); test: Inhibition of human ERG
[20] = as §1; format: ADME, cell-free
[21] = Ratio of AUC in Sprague-Dawley rat brain at 10 mg/kg, ip to AUC in Sprague-Dawley rat plasma at 10 mg/kg, ip; format: ADME, organism-based; details: brain and plasma, read-out: Ratio AUC
[22] = Inhibition of calcium channel
[23] = target: Metabotropic glutamate receptor 5 (Rattus norvegicus) (UniProt P31424); test: Displacement of [3H]-methoxyPEPy from rat mGlu5 receptor expressed in HEK293 cells up to 30 uM after 1 hr by scintillation counting analysis; format: cell-based

Metabotropic glutamate receptor 3 (Homo sapiens), sequence (Q14832 23-879 limits assumed): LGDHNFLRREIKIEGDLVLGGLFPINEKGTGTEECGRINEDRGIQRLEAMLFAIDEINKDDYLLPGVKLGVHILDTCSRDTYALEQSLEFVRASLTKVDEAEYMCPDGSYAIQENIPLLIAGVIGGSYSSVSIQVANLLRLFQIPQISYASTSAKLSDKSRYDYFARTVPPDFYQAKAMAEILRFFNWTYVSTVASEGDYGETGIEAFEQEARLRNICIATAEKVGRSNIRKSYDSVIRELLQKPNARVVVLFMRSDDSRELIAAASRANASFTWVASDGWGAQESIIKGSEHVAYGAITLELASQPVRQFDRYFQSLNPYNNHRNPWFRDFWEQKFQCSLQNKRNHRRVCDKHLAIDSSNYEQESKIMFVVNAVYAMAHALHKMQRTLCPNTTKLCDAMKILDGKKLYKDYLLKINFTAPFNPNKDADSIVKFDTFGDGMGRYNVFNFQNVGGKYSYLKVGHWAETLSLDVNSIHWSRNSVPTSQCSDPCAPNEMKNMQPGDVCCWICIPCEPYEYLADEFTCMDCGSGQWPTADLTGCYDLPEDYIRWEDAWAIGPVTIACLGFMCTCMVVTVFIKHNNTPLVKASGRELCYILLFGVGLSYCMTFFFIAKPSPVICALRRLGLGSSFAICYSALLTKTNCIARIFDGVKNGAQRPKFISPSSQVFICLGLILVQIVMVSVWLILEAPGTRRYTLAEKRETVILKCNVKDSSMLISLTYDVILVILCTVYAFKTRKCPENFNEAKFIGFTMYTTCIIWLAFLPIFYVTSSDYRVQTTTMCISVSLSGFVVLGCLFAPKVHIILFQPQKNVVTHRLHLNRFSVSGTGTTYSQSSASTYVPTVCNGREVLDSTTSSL
Metabotropic glutamate receptor 1 (Homo sapiens), sequence (Q13255 19-1194 limits assumed): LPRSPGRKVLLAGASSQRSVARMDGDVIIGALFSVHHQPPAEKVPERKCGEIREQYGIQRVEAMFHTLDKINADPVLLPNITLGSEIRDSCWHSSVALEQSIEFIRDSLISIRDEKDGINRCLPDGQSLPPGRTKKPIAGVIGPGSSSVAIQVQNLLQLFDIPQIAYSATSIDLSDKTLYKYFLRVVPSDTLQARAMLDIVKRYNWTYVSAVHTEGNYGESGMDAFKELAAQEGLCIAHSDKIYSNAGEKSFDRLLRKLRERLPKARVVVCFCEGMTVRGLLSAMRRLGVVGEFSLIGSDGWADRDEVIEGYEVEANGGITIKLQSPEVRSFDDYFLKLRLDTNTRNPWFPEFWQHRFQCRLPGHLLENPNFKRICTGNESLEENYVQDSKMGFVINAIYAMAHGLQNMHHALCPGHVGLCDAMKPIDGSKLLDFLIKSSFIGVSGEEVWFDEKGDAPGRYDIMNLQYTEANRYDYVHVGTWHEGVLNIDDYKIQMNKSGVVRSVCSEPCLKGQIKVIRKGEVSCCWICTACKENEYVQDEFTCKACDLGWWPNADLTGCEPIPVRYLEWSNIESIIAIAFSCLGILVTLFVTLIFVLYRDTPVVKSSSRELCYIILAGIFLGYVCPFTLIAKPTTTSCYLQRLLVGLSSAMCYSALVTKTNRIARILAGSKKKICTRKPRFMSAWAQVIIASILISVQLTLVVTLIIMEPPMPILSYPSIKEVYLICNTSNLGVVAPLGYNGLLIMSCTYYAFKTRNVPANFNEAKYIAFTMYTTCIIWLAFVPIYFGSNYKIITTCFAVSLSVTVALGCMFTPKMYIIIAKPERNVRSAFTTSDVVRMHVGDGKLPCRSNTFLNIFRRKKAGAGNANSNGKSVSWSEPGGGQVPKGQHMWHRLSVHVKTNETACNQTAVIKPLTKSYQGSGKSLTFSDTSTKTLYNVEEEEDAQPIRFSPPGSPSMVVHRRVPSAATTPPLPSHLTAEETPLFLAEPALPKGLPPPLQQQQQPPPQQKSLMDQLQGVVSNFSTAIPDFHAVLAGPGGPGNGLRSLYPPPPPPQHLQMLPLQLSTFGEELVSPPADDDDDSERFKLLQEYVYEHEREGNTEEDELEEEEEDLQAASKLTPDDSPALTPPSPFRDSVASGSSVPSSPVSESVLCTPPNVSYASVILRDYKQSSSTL
Metabotropic glutamate receptor 5 (Rattus norvegicus), sequence (P31424 21-1203 limits assumed): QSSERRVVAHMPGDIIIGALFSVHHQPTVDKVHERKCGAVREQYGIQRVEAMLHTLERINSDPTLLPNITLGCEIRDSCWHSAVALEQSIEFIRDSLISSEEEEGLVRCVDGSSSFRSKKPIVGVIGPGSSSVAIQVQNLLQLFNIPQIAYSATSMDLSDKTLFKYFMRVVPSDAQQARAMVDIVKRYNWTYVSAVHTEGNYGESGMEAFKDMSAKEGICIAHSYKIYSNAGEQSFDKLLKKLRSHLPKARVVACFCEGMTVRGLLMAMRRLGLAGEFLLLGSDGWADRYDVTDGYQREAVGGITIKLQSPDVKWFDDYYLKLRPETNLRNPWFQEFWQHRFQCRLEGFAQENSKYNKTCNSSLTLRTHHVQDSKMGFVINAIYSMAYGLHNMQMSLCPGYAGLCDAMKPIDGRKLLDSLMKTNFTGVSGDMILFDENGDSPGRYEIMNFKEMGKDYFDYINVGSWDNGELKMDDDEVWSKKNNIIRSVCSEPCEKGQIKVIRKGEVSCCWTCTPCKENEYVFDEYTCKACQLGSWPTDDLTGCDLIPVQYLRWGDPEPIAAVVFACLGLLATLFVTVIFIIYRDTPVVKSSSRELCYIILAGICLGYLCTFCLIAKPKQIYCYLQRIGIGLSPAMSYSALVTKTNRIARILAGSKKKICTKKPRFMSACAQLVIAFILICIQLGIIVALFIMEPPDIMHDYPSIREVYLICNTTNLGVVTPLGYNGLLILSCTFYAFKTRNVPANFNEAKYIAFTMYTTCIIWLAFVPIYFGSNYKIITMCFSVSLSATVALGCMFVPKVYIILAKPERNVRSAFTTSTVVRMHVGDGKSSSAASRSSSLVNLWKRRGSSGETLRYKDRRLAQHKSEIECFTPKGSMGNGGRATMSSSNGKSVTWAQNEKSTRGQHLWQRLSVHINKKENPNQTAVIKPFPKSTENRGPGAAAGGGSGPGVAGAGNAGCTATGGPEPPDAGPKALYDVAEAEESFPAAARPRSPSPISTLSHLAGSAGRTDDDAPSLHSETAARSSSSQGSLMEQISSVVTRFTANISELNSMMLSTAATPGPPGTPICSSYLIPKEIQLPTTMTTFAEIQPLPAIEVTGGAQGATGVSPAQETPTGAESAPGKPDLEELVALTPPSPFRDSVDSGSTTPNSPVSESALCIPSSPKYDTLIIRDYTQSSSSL

Compound | EC50 [3] | Emax [6] | EC50 ([7]; read-out: EC50) | Emax [9] | also measured
O=C(Nc1ccc(Cl)cc1CN1C(=O)c2ccccc2C1=O)c1ccccc1O |  |  |  |  | Ratio EC50 [1]: 3
CS(=O)(=O)N(CC(=O)Nc1cccc(Cl)c1)c1ccccc1Cl | 0.08 µM | 74% | 0.78 µM | 63% | Activity [2]: > 10 µM; Activity [4]: > 10 µM; Ratio EC50 [1]: 10; Ki [5]: > 10 µM; Activity [8]: > 10 µM; Activity [10]: > 10 µM; Activity [11]: > 10 µM; Activity [12]: > 10 µM; Activity [13]: > 10 µM
CCCC(C(=O)Nc1cccc(Cl)c1)N(c1ccccc1Cl)S(C)(=O)=O (racemic) | > 10 µM |  |  |  | 
CS(=O)(=O)N(CC(=O)Nc1ccccc1)c1ccccc1Cl | 0.07 µM | 61% | 1.38 µM | 77% | Activity [2]: > 10 µM; Activity [4]: > 10 µM; Stability [14]: <= 4%; Ki [5]: > 10 µM; Activity [8]: > 10 µM; Activity [10]: > 10 µM; Fu [15]: 0.13; Activity [12]: > 10 µM; Activity [13]: > 10 µM
CS(=O)(=O)N(CC(=O)Nc1ccc(F)cn1)c1ccccc1Cl | 3.72 µM | 66% |  |  | Stability [14]: 39%; Fu [16]: 0.09; Fu [15]: 0.17
CC(C(=O)Nc1cccc(Cl)c1)N(c1ccccc1Cl)S(C)(=O)=O (racemic) | 0.068 µM | 43% |  |  | 
CS(=O)(=O)N1c2ccccc2CCC1C(=O)Nc1ccccn1 (racemic) | 1.3 µM | 68% |  |  | 
CS(=O)(=O)N1c2ccccc2CCC1C(=O)Nc1cccc(Cl)c1 (racemic) | 1 µM | 60% |  |  | 
CCS(=O)(=O)N1c2ccccc2CC[C@H]1C(=O)Nc1cccc(Cl)c1 | 2.5 µM | 74% |  |  | 
CS(=O)(=O)N(CC(=O)Nc1ccc(F)nc1)c1ccccc1Cl | 4.47 µM | 72% | > 10 µM | 35% | pEC50 ([7]; hek293): < 5
O=C(Nc1cccc(Cl)c1)[C@@H]1CCc2ccccc2N1S(=O)(=O)c1ccccc1F | 6.7 µM | 78% |  |  | 
CS(=O)(=O)N(CC(=O)NCC1CC1)c1cc(C(F)(F)F)ccc1Cl | 0.398 µM | 61% | 4.5 µM | 70% | Activity [2]: > 10 µM; Activity [4]: > 10 µM; fraction unbound at 4 h, 5 µM [17]: 0.1; Ki [5]: > 30 µM; IC50 [18]: > 10 µM; IC50 [19]: > 10 µM; Activity [8]: > 10 µM; Activity [10]: > 10 µM; fraction unbound at 4 h, 5 µM [20]: 0.13; Kp [21]: 0.4; Activity [11]: > 10 µM; Activity [12]: > 10 µM; IC50 [22]: > 10 µM; Activity [13]: > 10 µM
O=S(=O)(c1ccc(F)cc1)N1CCC[C@H](c2nc(-c3ccc(F)cc3)no2)C1 | 3.4 µM | 84% | > 10 µM | 43% | Activity [23]: inactive
O=S(=O)(c1ccc(C#Cc2cccc(F)c2)cc1)N1CCOCC1 | 0.457 µM | 55% |  |  | Activity [23]: inactive; EC50 ([7]; hek293): Not Active
CCC(C(=O)Nc1cccc(Cl)c1)N(c1ccccc1Cl)S(C)(=O)=O (racemic) | 3.3 µM |  |  |  | 
CS(=O)(=O)N(CC(=O)Nc1cccnc1F)c1ccccc1Cl | 1.74 µM | 64% | > 10 µM | 42% | pEC50 ([7]; hek293): < 5
Cn1cnc(S(=O)(=O)N2c3ccccc3CCC2C(=O)Nc2cccc(Cl)c2)c1 (racemic) | > 10 µM | 75% |  |  | 
